# What was measured:
# Assay type in all cases: cell-based
# [1] = system: HEK293 cells (AAV producer cells); test: AAV productivity with culture media additives supplemented two hours post-transfection, shake flasks (Example 3)
# Experimental: (§1) For each parameter tested, HEK293 cells were expanded by shake flask culture with a target seed density of >0.25E6 viable cells/mL and a target final density of <6E6 viable cells/mL. Expanded cells were inoculated into an Applikon 3 L Glass Bioreactor containing the appropriate amount of cell culture medium prior to transfection at a 2 L working volume.
# (§2) Cell transfection was performed generally as described in Grieger et al. (2016) Molecular Therapy 24(2): 287-297. Briefly, transfection mixes were prepared by mixing calculated volumes of vector(s), transfection media, and polyethylenimine (PEI), all at ambient temperature, and allowed to equilibrate before the transfection mixes were added to the cells. […] Productivity was measured by vector genome titer and capsid yield. Vector genome (VG) titer was determined by droplet digital PCR (ddPCR) by standard methods using primer/probe sets specific to the transgene payload of the vector comprising the transgene. Capsid yield was determined using enzyme-linked immunosorbent assays (ELISAs) by standard methods with an immobilized antibody directed against an epitope of the capsid as encoded by the vector comprising the capsid sequences. Percentage of intact vector genomes (% Full capsids) was calculated by dividing the vector genome productivity determined by ddPCR by the number of capsids determined by ELISA. […]
# [2] = system: HEK293 cells (AAV producer cells); test: DMSO time course analysis of AAV productivity (Example 4); details: 1.5% (v/v) DMSO added two hours pre-transfection and up to 30 minutes post-transfection; compared to the other time points tested
# Experimental: as §1, §2
# [3] = system: second HEK293 cell line (AAV producer cells); test: AAV productivity with DMSO supplementation 30-120 minutes post-transfection, 3 L single-use bioreactors (Example 6); details: DMSO 120 minutes vs 30 minutes post-transfection, pH 7.0, 39° C.
# Experimental: (§3) Cell transfection was performed generally as described in Grieger et al. (2016) Molecular Therapy 24(2): 287-297. Briefly, transfection mixes were prepared by mixing calculated volumes of vector(s), transfection media, and polyethylenimine (PEI), all at ambient temperature, and allowed to equilibrate before the transfection mixes were added to the cells. Post-transfection bioreactor setpoint shifts were performed 2 hours post-transfection, and cells were harvested 72 hours post-transfection. Harvested cells were lysed as described in Grieger et al. (2016) Molecular Therapy 24(2): 287-297. Crude lysate samples were collected following centrifugation to remove cellular debris. Productivity was measured by vector genome titer and capsid yield. Vector genome (VG) titer was determined by droplet digital PCR (ddPCR) by standard methods using primer/probe sets specific to the transgene payload of the vector comprising the transgene. Capsid yield was determined using enzyme-linked immunosorbent assays (ELISAs) by standard methods with an immobilized antibody directed against an epitope of the capsid as encoded by the vector comprising the capsid sequences. Percentage of intact vector genomes (% Full capsids) was calculated by dividing the vector genome productivity determined by ddPCR by the number of capsids determined by ELISA.
# Based on the findings above, the effects of post-transfection pH, and the effect of supplementing the culture media with DMSO at 30-120 minutes post-transfection were further tested using a different representative AAV particle. Experiments were performed with a second HEK293 cell line according to the methods described in Examples 1 and 5 using 3 L single-use bioreactors.
# AAV productivity, in terms of vector genome (VG) titer (FIG. 8A), capsid yield (FIG. 8B), and percent intact vector genomes (% Full; FIG. 8C), was measured as described in Example 1.
# [4] = system: second HEK293 cell line (AAV producer cells); test: AAV productivity at different DMSO concentrations, shake flasks (Example 7)
# Experimental: as §3
# The conditions of DMSO supplementation were further tested using different representative AAV particles. Experiments were performed with a second HEK293 cell line according to the methods described in Example 1 using shake flasks.
# AAV productivity, in terms of vector genome (VG) titer (FIGS. 9A and 10A), capsid yield (FIGS. 9B and 10B), and percent intact vector genomes (% Full; FIGS. 9C and 10C), was measured as described in Example 1.
# [5] = FIG. 9, 0.5% to 2.25% DMSO two hours post-transfection, up to a DMSO concentration of 1.5%
# [6] = FIG. 10, 0.75% DMSO two hours post-transfection compared with 0% DMSO
# [7] = FIG. 10, 1.5% DMSO two hours post-transfection compared with 0.75% DMSO
smiles,measurement,setting,value
"C[S+](C)[O-] [DMSO, dimethyl sulfoxide]",VG titer,"[1]; additive supplemented two hours post-transfection, ddPCR on crude lysate, over control conditions with no additive",general increase
same,percent full capsids,"[1]; supplemented two hours post-transfection, as compared to the other additives",higher percent full capsids
same,percent yield of full capsids,[2],higher percent yield of full capsids
same,VG titers,[3],similar
same,capsid yields,[3],similar
same,intact vector genomes,[3],similar
same,percent full capsids,"[4]; FIG. 9, 0.5% to 2.25% DMSO two hours post-transfection",increased
same,VG titer,[4]; [5],increased
same,capsid titer,[4]; [5],increased or comparable
same,percent full capsids,"[4]; FIG. 9, 0.5%, 0.75%, 1.5% and 2.25% DMSO compared with each other",comparable
same,VG titer,[4]; [6],increased
same,capsid titer,[4]; [6],increased
same,percent full capsids,[4]; [6],comparable
same,VG titer,[4]; [7],comparable
same,capsid titer,[4]; [7],decreased
same,percent full capsids,[4]; [7],increased

# — US20230323395A1, “METHODS AND COMPOSITIONS FOR THE PRODUCTION OF ADENO-[…]” (Homology Medicines, Inc., priority 2021, published 2023)
